# In ChEMBL document CHEMBL5032528, “Development of novel tetrahydroisoquinoline-hydroxamate conjugates as potent dual SERDs/HDAC inhibitors for the treatment of breast cancer” (Eur J Med Chem, 2021):
# Activity calls are given as the source filed them. No cut-off for these calls is given here.
# Key:
# [1] = molecular target: T1, Estrogen receptor (Homo sapiens, UniProt P03372); assay: Displacement of fluorescent estradiol from full-length ERalpha (unknown origin) measured after 2 hrs by fluorescence polarization assay
# T1 sequence (P03372 whole entry): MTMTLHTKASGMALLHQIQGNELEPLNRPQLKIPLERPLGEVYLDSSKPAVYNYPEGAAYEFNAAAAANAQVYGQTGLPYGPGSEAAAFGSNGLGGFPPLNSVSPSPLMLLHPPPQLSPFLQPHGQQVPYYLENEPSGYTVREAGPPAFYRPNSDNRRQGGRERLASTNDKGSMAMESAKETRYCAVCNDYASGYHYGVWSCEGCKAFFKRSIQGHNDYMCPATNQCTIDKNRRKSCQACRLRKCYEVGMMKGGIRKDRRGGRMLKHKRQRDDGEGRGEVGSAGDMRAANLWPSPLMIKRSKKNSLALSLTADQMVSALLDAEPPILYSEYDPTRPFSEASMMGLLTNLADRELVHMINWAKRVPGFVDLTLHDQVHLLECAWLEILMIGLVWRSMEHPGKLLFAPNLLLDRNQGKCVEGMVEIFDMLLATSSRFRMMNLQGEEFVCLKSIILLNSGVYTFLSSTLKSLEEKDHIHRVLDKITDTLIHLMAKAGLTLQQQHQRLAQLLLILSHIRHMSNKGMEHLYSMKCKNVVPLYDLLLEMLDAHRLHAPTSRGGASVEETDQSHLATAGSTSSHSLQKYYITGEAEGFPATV
# [2] = molecular target: T2, Estrogen receptor (Homo sapiens) (UniProt P03372); assay: Inhibition of ERalpha signaling in human MCF7 cells at 10 uM measured after 24 hrs by Western blot assay; type: cell-based
# T2 sequence (whole entry): T1 sequence (P03372 whole entry)
# [3] = Stability in human liver microsomes assessed as half life; type: ADME, Microsome
# [4] = Toxicity in Balb/c mouse xenografted with human MCF7 cells assessed as body weight loss at 5 mg/kg/day, iv administered for 21 days; type: organism-based; conditions: in vivo, 504 h, time 21 day
# [5] = in vitro; conditions: human, liver microsomes
# [6] = molecular target: T2, Estrogen receptor (Homo sapiens); assay: Induction of ERalpha degradation in human MCF7 cells at 0.1 uM measured after 24 hrs by Western blot analysis; type: cell-based
# [7] = molecular target: T3, Protein deacetylase HDAC6 (Homo sapiens) (UniProt Q9UBN7); assay: Inhibition of HDAC6 in human MCF7 cells assessed as increase in intracellular acetylation level of alpha-tubulin after 24 hrs by Western blot analysis; type: cell-based; conditions: dose 10-1000 nM
# T3 sequence (whole entry): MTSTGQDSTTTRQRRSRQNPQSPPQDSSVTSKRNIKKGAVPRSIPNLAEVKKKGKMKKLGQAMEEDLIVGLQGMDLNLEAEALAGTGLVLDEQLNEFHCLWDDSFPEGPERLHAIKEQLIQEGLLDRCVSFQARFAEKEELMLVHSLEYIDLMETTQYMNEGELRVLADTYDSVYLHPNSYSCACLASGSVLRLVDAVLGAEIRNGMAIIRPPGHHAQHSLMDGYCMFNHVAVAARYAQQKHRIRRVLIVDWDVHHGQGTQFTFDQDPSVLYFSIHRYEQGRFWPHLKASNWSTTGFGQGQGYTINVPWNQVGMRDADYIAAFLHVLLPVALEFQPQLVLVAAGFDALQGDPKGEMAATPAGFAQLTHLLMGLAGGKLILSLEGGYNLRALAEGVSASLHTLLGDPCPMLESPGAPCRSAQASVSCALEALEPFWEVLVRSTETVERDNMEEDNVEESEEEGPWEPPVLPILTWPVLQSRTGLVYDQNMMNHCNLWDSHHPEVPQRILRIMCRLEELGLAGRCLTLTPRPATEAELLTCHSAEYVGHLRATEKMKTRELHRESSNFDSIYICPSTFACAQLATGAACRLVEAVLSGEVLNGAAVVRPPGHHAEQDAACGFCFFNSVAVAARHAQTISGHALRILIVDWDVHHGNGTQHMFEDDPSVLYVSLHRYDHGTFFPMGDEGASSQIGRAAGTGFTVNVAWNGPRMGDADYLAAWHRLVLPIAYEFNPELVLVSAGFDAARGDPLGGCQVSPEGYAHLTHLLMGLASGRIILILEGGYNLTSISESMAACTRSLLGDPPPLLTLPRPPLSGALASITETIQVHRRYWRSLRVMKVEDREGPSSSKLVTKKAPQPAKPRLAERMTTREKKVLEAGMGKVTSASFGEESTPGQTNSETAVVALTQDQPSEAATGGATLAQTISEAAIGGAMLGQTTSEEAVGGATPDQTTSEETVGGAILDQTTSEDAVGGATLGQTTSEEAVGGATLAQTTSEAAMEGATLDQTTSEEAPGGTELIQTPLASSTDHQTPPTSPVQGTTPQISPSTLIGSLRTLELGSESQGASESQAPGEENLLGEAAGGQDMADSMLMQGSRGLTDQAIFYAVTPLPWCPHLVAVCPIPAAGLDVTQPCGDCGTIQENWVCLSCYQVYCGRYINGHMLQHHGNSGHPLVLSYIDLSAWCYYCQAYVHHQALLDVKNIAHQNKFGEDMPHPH
# [8] = tested on: MDA-MB-231; assay: Antimigratory activity against human MDA-MB-231 cells measured after 48 hrs by scratch wound-healing assay; type: functional, cell-based
# [9] = tested on: MCF7; assay: Induction of apoptosis in human MCF7 cells at 0.1 uM incubated for 24 hrs by PI staining based flow cytometry analysis; type: functional, cell-based
# [10] = Toxicity in Balb/c mouse xenografted with human MCF7 cells assessed as change in organ morphology at 5 mg/kg/day, iv administered for 21 days by H and E staining based analysis; type: organism-based; conditions: in vivo, 504 h, time 21 day
# [11] = molecular target: T2, Estrogen receptor (Homo sapiens); assay: Antagonist activity at ERalpha in human MCF7 cells assessed as reduction in E2-induced GREB1 gene expression incubated for 24 hrs by qRT-PCR analysis; type: cell-based; conditions: filed as antagonist, dose 3-300 nM
# [12] = molecular target: Histone deacetylase 4 (Homo sapiens, UniProt P56524); assay: Inhibition of HDAC4 (unknown origin)
# Sequence of Histone deacetylase 4 (P56524 whole entry): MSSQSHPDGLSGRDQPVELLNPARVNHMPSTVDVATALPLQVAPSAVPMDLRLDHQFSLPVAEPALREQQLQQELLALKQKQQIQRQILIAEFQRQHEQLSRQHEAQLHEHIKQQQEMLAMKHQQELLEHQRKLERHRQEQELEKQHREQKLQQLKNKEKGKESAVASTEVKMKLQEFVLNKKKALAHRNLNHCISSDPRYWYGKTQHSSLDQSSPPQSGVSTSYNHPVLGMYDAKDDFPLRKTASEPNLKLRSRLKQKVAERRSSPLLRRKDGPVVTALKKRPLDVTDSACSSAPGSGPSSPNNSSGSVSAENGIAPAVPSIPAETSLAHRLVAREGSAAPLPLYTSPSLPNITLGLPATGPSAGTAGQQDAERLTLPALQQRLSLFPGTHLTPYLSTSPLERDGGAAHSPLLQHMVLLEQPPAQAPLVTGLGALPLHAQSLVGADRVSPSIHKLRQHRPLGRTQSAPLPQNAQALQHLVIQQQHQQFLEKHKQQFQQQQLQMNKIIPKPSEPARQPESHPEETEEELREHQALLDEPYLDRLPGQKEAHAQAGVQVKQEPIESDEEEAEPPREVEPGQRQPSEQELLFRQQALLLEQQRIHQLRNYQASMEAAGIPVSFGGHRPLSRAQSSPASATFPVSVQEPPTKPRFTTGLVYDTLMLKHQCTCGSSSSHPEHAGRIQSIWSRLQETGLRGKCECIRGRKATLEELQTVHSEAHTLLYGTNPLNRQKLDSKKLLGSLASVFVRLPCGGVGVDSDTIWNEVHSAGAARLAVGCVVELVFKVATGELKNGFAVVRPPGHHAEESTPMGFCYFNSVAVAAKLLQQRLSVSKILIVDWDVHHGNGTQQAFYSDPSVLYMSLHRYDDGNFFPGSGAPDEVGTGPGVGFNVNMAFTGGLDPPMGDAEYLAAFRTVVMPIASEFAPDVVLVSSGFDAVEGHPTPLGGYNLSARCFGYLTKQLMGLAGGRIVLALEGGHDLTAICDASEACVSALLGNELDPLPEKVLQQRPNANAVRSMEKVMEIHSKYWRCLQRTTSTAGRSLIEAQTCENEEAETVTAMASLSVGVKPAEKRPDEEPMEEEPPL
# [13] = molecular target: T2, Estrogen receptor (Homo sapiens); assay: Antagonist activity at ERalpha in human MCF7 cells assessed as reduction in E2-induced PGR gene expression incubated for 24 hrs by qRT-PCR analysis; type: cell-based; conditions: filed as antagonist, dose 3-300 nM
# [14] = tested on: MDA-MB-231; assay: Antiproliferative activity against human MDA-MB-231 cells assessed as reduction in cell growth measured after 2 days by CCK8 assay; type: functional, cell-based; conditions: MDA-MB-231, 48 h
# [15] = molecular target: T2, Estrogen receptor (Homo sapiens); assay: Inhibition of ERalpha signaling in human MCF7 cells at 1 uM measured after 24 hrs by Western blot assay; type: cell-based
# [16] = Stability in human plasma assessed as half life; type: ADME, cell-free
# [17] = Lipophilicity, logD of compound in n-octanol and phosphate buffer at pH 7.4 after 1.5 hrs by HPLC analysis; type: physicochemical
# [18] = tested on: Mus musculus; assay: In vivo induction of ERalpha degradation in human […] cells xenografted in BALB/c mouse assessed as decrease in ERalpha level at 5 mg/kg/day, iv administered for 21 days by Western blot analysis; type: functional, organism-based; conditions: time 21.0 day
# [19] = tested on: MCF7; assay: Antitumor activity against human MCF7 cells xenografted in BALB/c nude mouse assessed as TGI at 5 mg/kg/day, iv administered for 21 days; type: functional; conditions: 504 h, time 21 day, read-out: TGI
# [20] = tested on: Ishikawa; assay: Induction of human ishikawa cells proliferation at 39 to 10000 nM measured after 48 hrs by CCK8 assay; type: functional; conditions: dose 39-10000 nM
# [21] = molecular target: Histone deacetylase 1 (Homo sapiens, UniProt Q13547); assay: Inhibition of HDAC1 (unknown origin)
# Sequence of Histone deacetylase 1 (Q13547 whole entry): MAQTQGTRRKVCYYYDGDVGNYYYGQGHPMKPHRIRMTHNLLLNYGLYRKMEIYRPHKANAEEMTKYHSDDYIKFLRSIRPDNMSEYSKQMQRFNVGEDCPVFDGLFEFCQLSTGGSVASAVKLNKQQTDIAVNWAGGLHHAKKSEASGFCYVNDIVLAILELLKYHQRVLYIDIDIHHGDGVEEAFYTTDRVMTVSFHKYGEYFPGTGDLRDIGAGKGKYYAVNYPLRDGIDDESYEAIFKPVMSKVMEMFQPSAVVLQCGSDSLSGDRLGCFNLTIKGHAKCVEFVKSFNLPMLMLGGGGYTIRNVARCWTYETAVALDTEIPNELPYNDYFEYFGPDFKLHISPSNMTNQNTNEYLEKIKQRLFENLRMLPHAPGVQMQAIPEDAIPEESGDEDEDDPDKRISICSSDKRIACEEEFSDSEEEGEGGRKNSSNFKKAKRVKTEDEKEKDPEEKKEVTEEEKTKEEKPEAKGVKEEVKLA
# [22] = tested on: MCF7; assay: Antiproliferative activity against human MCF7 cells assessed as reduction in cell growth measured after 6 days by WST8 assay; type: functional; conditions: time 6 day
# [23] = molecular target: Histone deacetylase (Homo sapiens) (UniProt Q13547+O15379+Q9UBN7+Q92769+Q9UQL6+Q8WUI4+Q9BY41+Q96DB2+P56524+Q9UKV0+Q969S8); assay: Inhibition of HDAC in human MDA-MB-231 cells assessed as increase in alpha tubulin acetylation after 24 hrs by immunofluorescence assay; type: cell-based; conditions: dose 5.0 µM
# [24] = molecular target: T2, Estrogen receptor (Homo sapiens); assay: Antagonist activity at ERalpha activity in human ishikawa cells assessed as reduction in PGR mRNA expression at 10 to 300 nM for 24 hrs; type: cell-based; conditions: filed as antagonist, dose 10-300 nM
# [25] = molecular target: T2, Estrogen receptor (Homo sapiens); assay: Inhibition of ERalpha signaling in human MCF7 cells measured after 24 hrs by Western blot assay; type: cell-based; conditions: dose 10-10000 nM
# [26] = molecular target: T4, Protein deacetylase HDAC6 (Homo sapiens, UniProt Q9UBN7); assay: Inhibition of HDAC6 (unknown origin) using Ac-peptide as substrate preincubated for 15 mins followed by substrate addition and measured after 60 mins by fluorescence assay
# T4 sequence (Q9UBN7 whole entry): T3 sequence (whole entry)
# [27] = tested on: Ishikawa; assay: Induction of human ishikawa cells proliferation at 300 nM measured after 48 hrs by CCK8 assay; type: functional
smiles,measurement,setting,value
CC(C)(F)CN1CCc2cc(O)ccc2C1c1ccc(OCCCCCCC(=O)NO)cc1 (stereo unspecified),IC50,[1],0.0908 µM
same,inhibition,[2],100%
same,half-life,[3],18.8 min
same,Activity,[4],Non-Toxic
same,CLint scaled,[5],132 mL/min/kg
same,Activity,[6],57%
same,inhibition,[7],Dose-Dependent Effect
same,Activity,[8],Active
same,Activity,[9],Active
same,Activity,[10],Non-Toxic
same,Activity,[11],Dose-Dependent Effect
same,IC50,[12],> 1 µM
same,Activity,[13],Dose-Dependent Effect
same,IC50,[14],0.38 µM
same,inhibition,[15],Active
same,half-life,[16],458 min
same,logD at 1.5 h,[17],2.49
same,inhibition,[18],Active
same,inhibition in vivo at 5 mg/kg/day,[19],58%
same,Activity,[20],inactive
same,IC50,[21],0.582 µM
same,GI50,"[22]; Homo sapiens, MCF7, 144 h",0.17 µM
same,inhibition,[23],Dose-Dependent Effect
same,Activity,[24],Active
same,inhibition,[25],Dose-Dependent Effect
same,IC50,[26],0.0628 µM
CC(C)(F)CN1CCc2cc(O)ccc2C1c1ccc(OCCCOc2ccc(C(=O)NO)cc2)cc1 (stereo unspecified),IC50,[1],0.132 µM
same,Activity,[6],inactive
same,GI50,"[22]; Homo sapiens, MCF7, 144 h",0.46 µM
CC(C)(F)CN1CCc2cc(O)ccc2C1c1ccc(OCCCCCC(=O)NO)cc1 (stereo unspecified),IC50,[1],0.102 µM
same,Activity,[6],31%
same,GI50,"[22]; Homo sapiens, MCF7, 144 h",0.95 µM
same,IC50,[26],0.0659 µM
C[C@]12CC[C@@H]3c4ccc(O)cc4C[C@@H](CCCCCCCCC[S+]([O-])CCCC(F)(F)C(F)(F)F)[C@H]3[C@@H]1CC[C@@H]2O (stereo partly specified) [FULVESTRANT],half-life,[3],1.56 min
same,CLint scaled,[5],1150 mL/min/kg
same,Activity,[27],Active
same,logD at 1.5 h,[17],6.8
same,GI50,"[22]; Homo sapiens, MCF7, 144 h",0.54 µM
O=C(CCCCCCC(=O)Nc1ccccc1)NO [VORINOSTAT],GI50,[22],1.25 µM
CC(C)(F)CN1CCc2cc(O)ccc2C1c1ccc(OC2CN(CC(=O)NO)C2)cc1 (stereo unspecified),IC50,[1],0.0782 µM
same,Activity,[6],32%
same,GI50,"[22]; Homo sapiens, MCF7, 144 h",1.82 µM
same,IC50,[26],0.175 µM
CC(C)(F)CN1CCc2cc(O)ccc2C1c1ccc(C(=O)NO)cc1 (stereo unspecified),IC50,[1],0.0963 µM
same,Activity,[6],5%
same,GI50,"[22]; Homo sapiens, MCF7, 144 h",0.23 µM
